Entries after “also recorded” stand apart in the source; their conditions may differ.
How the values were obtained:
mouse model of NAFLD = mouse model of NAFLD (streptozotocin plus high-fat diet), Example 1; format: in vivo, mice (C57/BL6); conditions: for fibrosis (histology, sirius red staining): compared to vehicle, FIGS. 7A-7D; for NAFLD Activity Score (NAS): FIGS. 8A-D
Protocol: The purpose of this study was to examine the effects of 15-HEPE and 15-HETrE compared to vehicle and to telmisartan in a mouse model of NAFLD.
C57/BL6 mice obtained from Charles River Laboratories were divided into 6 study groups as follows:
Group 1 (Vehicle): Twelve mice were each administered a single dose of steptozotocin after birth and fed a high-fat diet for four weeks. The mice were then fed vehicle in a volume of 10 mL/kg once daily from 5 to 12 weeks of age.
Group 2 (telmisartan): Twelve mice were each administered a single dose of steptozotocin after birth and fed a high-fat diet for four weeks. The mice were then fed telmisartan in an amount of 5 mg/kg once daily from 5 to 12 weeks of age.
Group 3 (15-HEPE, low dose): Twelve mice were each administered a single dose of steptozotocin after birth and fed a high-fat diet for four weeks. The mice were then fed 15-HEPE in an amount of 50 mg/kg once daily from 5 to 12 weeks of age.
Group 4 (15-HEPE, high dose): Twelve mice were each administered a single dose of steptozotocin after birth and fed a high-fat diet for four weeks. The mice were then fed 15-HEPE in an amount of 500 mg/kg once daily from 5 to 12 weeks of age.
Group 5 (15-HETrE, low dose): Twelve mice were each administered a single dose of steptozotocin after birth and fed a high-fat diet for four weeks. The mice were then fed 15-HETrE in an amount of 10 mg/kg once daily from 5 to 12 weeks of age.
Group 6 (15-HETrE, high dose): Twelve mice were administered a single dose of steptozotocin after birth and fed a high-fat diet for four weeks. The mice were then fed 15-HETrE in an amount of 100 mg/kg once daily from 5 to 12 weeks of age.
At 12 weeks of age, all mice were assessed for changes in: • serum biochemistry (e.g., ALT levels, LDL levels, VLDL levels, HDL levels, triglyceride levels, total cholesterol level), • fibrosis (e.g., histology using sirius red staining), and • NAFLD activity score (including, e.g., H&E staining histology). Results

[1] = test system: Lung Fibroblasts from Idiopathic Pulmonary Fibrosis (IPF) patients; assay: TGF-beta induced alpha-SMA production in IPF lung fibroblasts; format: cell-based, human; conditions: 100 ug/ml; 2 hours pretreatment, then TGF beta (20 ng/ml) for 48 hours; FIG. 10
Protocol: Lung Fibroblasts from Idiopathic Pulmonary Fibrosis (IPF) patients were plated at 10000 cells per well in their respective growth mediums and allowed to attach overnight. After attachment, the cells were pretreated with 15(S)-HEPE for 2 hours in their respective assay mediums. After 2 hours, the cells were then treated with compounds+/−TGF beta (20 ng/ml) for 48 hours. After 48 hours, the conditioned media was collected and frozen at −80° C. for future collagen analysis. After collection, the cells were stained for SMA I expression. The collagen ELISA was performed according to the manufacturer's instructions.

[2] = test system: Lung Fibroblasts from Idiopathic Pulmonary Fibrosis (IPF) patients; assay: cytotoxicity in IPF lung fibroblasts; format: cell-based, human; conditions: treatment for 48 hours
[3] = test system: mouse model of non-alcoholic steatohepatitis (NASH); assay: NASH mouse model (streptozotocin plus high fat diet), liver fibrosis, Example 2; format: in vivo, mice; conditions: 500 mg/kg orally once daily from 5 to 9 weeks of age; compared with EPA (500 mg/kg) or vehicle; FIG. 9
Protocol: Non-alcoholic steatohepatitis (NASH) was induced in mice by a single subcutaneous injection of 200 μg of streptozotocin (Sigma Aldrich) two days after birth and feeding with high fat diet (57 kcal % fat, CLEA Japan) after 4 weeks of age. After randomization, each mouse was orally administered vehicle, telmisartan (10 mg/kg), 15-HEPE (500 mg/kg) or EPA (500 mg/kg) once daily from 5 to 9 weeks of age. At the end of the 9th week, the mice were sacrificed and analyzed.

[4] = 15-HEPE levels in tissues of dosed rats; format: in vivo; conditions: 500 mg/kg for 7 days, treated vs untreated control, FIG. 11
Protocol: Rats (n=5) were dosed with 15-HEPE (DS102) 500 mg/kg for 7 days and organs excised to analyse 15-HEPE levels in the tissues of treated vs untreated animals.

[5] = telmisartan 5 mg/kg once daily from 5 to 12 weeks of age, vs vehicle

**Q.** What does the source list for CCC=CCC(O)C=CC=CCC=CCC=CCCCC(=O)O (stereo not shown) [15-HEPE, 15-Hydroxy-eicosa-5,8,11,13,17-pentaenoic acid]?
**A.** fibrosis (histology, sirius red staining) (mouse model of NAFLD; high-dose 15-HEPE 500 mg/kg once daily from 5 to 12 weeks of age, equivalent to telmisartan): statistically equivalent low amount of fibrosis; plasma ALT levels (mouse model of NAFLD; high-dose 15-HEPE 500 mg/kg once daily from 5 to 12 weeks of age, vs high-dose 15-HETrE group (100 mg/kg), FIG. 6): significantly lower; NAFLD Activity Score (NAS) (mouse model of NAFLD; high-dose 15-HEPE 500 mg/kg once daily from 5 to 12 weeks of age, vs placebo (vehicle), p<0.01): significantly lower; plasma ALT levels (mouse model of NAFLD; high-dose 15-HEPE 500 mg/kg once daily from 5 to 12 weeks of age, vs vehicle, FIG. 6): significantly lower; Total cholesterol levels (mouse model of NAFLD; low-dose 15-HEPE 50 mg/kg once daily from 5 to 12 weeks of age, vs vehicle, FIG. 4): significantly lower; TGF-beta induced alpha-SMA production [1]: inhibited; also recorded: inhibition; cytotoxicity [2]: No cytotoxicity; treating and/or preventing liver fibrosis [3]: more effective; 15-HEPE level in the liver [4]: significantly more; 15-HEPE level in the lung [4]: significantly more

**Q.** Which serum triglycerides (mouse model of NAFLD; low-dose 15-HETrE 10 mg/kg once daily from 5 to 12 weeks of age, vs vehicle (Mann Whitney), FIG. 1) does the source give for CCCCCC(O)/C=C/C=C\C/C=C\CCCCCCC(=O)O (stereo not shown) [15-HETrE, 15-hydroxyeicosa-8(Z),11(Z),13(E)-trienoic acid] here?
**A.** Its serum triglycerides is “significantly lower”.

**Q.** What about the VLDL levels (mouse model of NAFLD; low-dose 15-HETrE 10 mg/kg once daily from 5 to 12 weeks of age, vs vehicle, FIG. 2) of the same compound?
**A.** Its VLDL levels is “significantly lower”.

**Q.** What about the LDL levels (mouse model of NAFLD; low-dose 15-HETrE 10 mg/kg once daily from 5 to 12 weeks of age, vs vehicle, FIG. 3) of the same compound?
**A.** The LDL levels was “significantly lower”.

**Q.** What about the Total cholesterol levels (mouse model of NAFLD; low-dose 15-HETrE 10 mg/kg once daily from 5 to 12 weeks of age, vs vehicle, FIG. 4) of the same compound?
**A.** Its Total cholesterol levels is “significantly lower”.

**Q.** Which “fibrosis (histology, sirius red staining)” value (mouse model of NAFLD; telmisartan 5 mg/kg once daily from 5 to 12 weeks of age) does the source give for CCCc1nc2c(C)cc(-c3nc4ccccc4n3C)cc2n1Cc1ccc(-c2ccccc2C(=O)O)cc1 [telmisartan, 2-(4-{[4-Methyl-6-(1-methyl-1H-1,3-benzodiazol-2-yl)-2-propyl-1H-1,3-benzodiazol-1-yl]methyl}phenyl)benzoic acid] here?
**A.** Its value is “low amount of fibrosis”.

**Q.** And the Hydroxyproline levels (mouse model of NAFLD; [5])?
**A.** The Hydroxyproline levels was “did not show statistically significant reductions”.

**Q.** And the LDL levels (mouse model of NAFLD; [5])?
**A.** The LDL levels was “did not show statistically significant reductions”.

**Q.** And the Total cholesterol levels (mouse model of NAFLD; [5])?
**A.** Its Total cholesterol levels is “did not show statistically significant reductions”.

**Q.** And the VLDL levels (mouse model of NAFLD; [5])?
**A.** Its VLDL levels is “did not show statistically significant reductions”.

**Q.** And the “plasma ALT levels” value (mouse model of NAFLD; [5])?
**A.** Its value is “did not show statistically significant reductions”.

**Q.** What about the serum triglycerides (mouse model of NAFLD; [5]) of the same compound?
**A.** Its serum triglycerides is “did not show statistically significant reductions”.

**Q.** What about the “NAFLD Activity Score (NAS)” value (mouse model of NAFLD; telmisartan 5 mg/kg once daily from 5 to 12 weeks of age, vs vehicle, p<0.001) of the same compound?
**A.** The value was “significantly lower”.
